# “Also recorded” adds a separate entry of the source.
# Key:
# [1] = tested on: muscle stem cells (muscle-SCs) and hematopoietic stem cells (HSC); conditions: aged muscle-SCs and HSCs, restoring autophagy; cited from earlier work
# [2] = tested on: senescent hMSCs; assay: Cellular senescence by SA-β-Gal activity assay; type: cell-based, human; conditions: senescent hMSCs with NAM treatment
# Description: Cellular senescence was evaluated by SA-β-Gal activity assay kit (Sigma, St. Louis, Mo.) as described in manufacture instructions.
# [3] = tested on: electron transport chain complex I; assay: Mitochondrial complex I (ETC-I) activity; type: cell-based, human; conditions: senescent hMSCs with NAM treatment
# Description: hMSCs were centrifuged, re-suspended in DI water, and heated immediately in a boiling water bath for 15 minutes. The mixture was centrifuged and ATP containing supernatant was collected. Upon measurement, 10 μL of ATP solution was mixed with 100 μL of the luciferin-luciferase reagent, and the bioluminescent signal was measured using an Orion Microplate Luminometer (Bad Wildbad, Deutschland) after 15 min incubation at room temperature. Activity of mitochondrial complex I was determined using the Complex I Enzyme Activity Microplate Assay Kit (Abcam, Cambridge, Mass.) according to the kit instructions.
# [4] = tested on: senescent hMSCs; assay: Intracellular NAD+ and NADH level of hMSCs; type: cell-based, human
# Description: (§1) hMSCs at passage 2 were expanded and cultured in complete culture medium(CCM). Cells were grown to 70-80% confluence and then harvested by incubation with 0.25% trypsin/EDTA. Harvested cells were re-plated at a density of 2,000 cells/cm^2 and sub-cultured up to Passage 12 in a standard CO2 incubator. hMSC sat Passage 5 (P5) and passage 12 (P12) were used for experiments. Stem cell properties including senescence, stem cell gene, cell cycle, proliferation rate were determined. Gas chromatography-mass spectrometry (GC-MS) and seahorse flux analyzer were used for characterization of energy metabolism phenotype. Mitochondrial functions were assessed by mitochondrial mass, membrane potential, electron transport complex activity and biogenesis. NAD+/NADH and Sirt-1 and -3 level was also measured in P5 and P12 hMSCs. NAD+ precursor nicotinamide (NAM) was used in CCM to adjust NAD+ level intracellularly.
# [5] = tested on: hMSC; assay: Mitochondrial fitness of hMSCs; type: cell-based, human
# Description: as §1
# [6] = tested on: senescent hMSCs; assay: Mitochondrial membrane potential (MMP), TMRM flow cytometry; type: cell-based, human; conditions: senescent hMSCs with NAM treatment
# Description: For MMP measurement, trypsinized MSCs were washed by centrifugation in warm Hank's Balanced Salt Solution (HBSS). Cell suspension was incubated with tetramethylrhodamine, methyl ester (TMRM) (Molecular Probe, Eugene, Oreg.) at 37° C., washed with HBSS, and analyzed by flow cytometry (BD Biosciences, San Jose, Calif.).
# [7] = tested on: senescent hMSCs; assay: Colony forming unit-fibroblast (CFU-F) assay; type: cell-based, human; conditions: senescent hMSCs with NAM treatment
# Description: Colony forming unit-fibroblast (CFU-F) were determined as following: hMSCs were harvested and re-plated at the density of 15 cells/cm2 on 60 cm2 culture dish and cultured for another 14 days in CCM. Cells were then stained with 20% crystal violet solution in methanol for 15 minutes at room temperature (RT) and washed with phosphate-buffered saline (PBS) wash, the numbers of individual colonies were counted manually.
# [8] = tested on: senescent hMSCs; assay: Mitophagy measurement; type: cell-based, human; conditions: senescent hMSCs with NAM treatment
# Description: (§2) For autophagy measurement, aliquots of cell suspension were incubated with 20 μM Cyto-ID Green (Enzo Life Sciences, Farmingdale, N.Y.), a fluorescent dye that selectively labels accumulated autophagic vacuoles, at 37° C. for 30 minutes, and analyzed by flow cytometry (BD Biosciences, San Jose, Calif.). For mitophagy measurement, […]
# [9] = tested on: senescent hMSCs; assay: Basal autophagy by Cyto-ID Green flow cytometry; type: cell-based, human; conditions: senescent hMSCs with NAM treatment
# Description: as §2
# [10] = continuous supplement of NAM (1 mM), FIG. 17
compound,measurement,setting,value
NCCCCNCCCN [spermidine],stem cell functions in vivo,[1],restored
"NC(=O)c1cccnc1 [NAM, nicotinamide]","hMSC senescence, SA-β-gal activity",[2],decreased; also recorded: reduced
same,ETC-I activity,[3],enhanced; also recorded: increased
same,hMSC cellular NAD+ level,[4]; [10],maintains
same,Cellular NAD+ level,"[4]; late passage hMSCs with culture-induced senescence, 96 h of NAM treatment",significantly increased; also recorded: potential improvement
same,"boosting intracellular NAD+ level, NAM compared to NMN","[4]; stem cells in culture, FIG. 16",better
same,"boosting intracellular NAD+ level, NAM compared with NR","[4]; stem cells in culture, FIG. 16",no significant difference
same,mitochondrial fitness,[5]; [10],maintains
same,recovery of mitochondria,"[5]; senescent hMSCs, supplement of NAM",recovery
same,mitochondrial membrane potential (MMP),[6],enhanced; also recorded: increased
same,colony forming ability,[7]; in words,improved
same,colony forming ability of hMSCs (CFU-F),[7]; control 3 CFU,11 CFU
same,mitophagy,[8],restored; also recorded: increased
same,Basal autophagy level,[9],restored; also recorded: increased
"NC(=O)c1ccc[n+]([C@@H]2O[C@H](CO)[C@@H](O)[C@H]2O)c1 [NR, nicotinamide riboside]","boosting NAD+/NADH ratio, NAM compared with NR","[4]; stem cells in culture, FIG. 16",no significant difference
same,"boosting intracellular NAD+ level, NAM compared with NR","[4]; stem cells in culture, FIG. 16",no significant difference
"NC(=O)c1ccc[n+]([C@@H]2O[C@H](COP(=O)([O-])O)[C@@H](O)[C@H]2O)c1 [NMN, nicotinamide mononucleotide]","boosting intracellular NAD+ level, NAM compared to NMN","[4]; stem cells in culture, FIG. 16",NAM is better
